Structures are written as SMILES.

The subject of one test is Saccharomyces cerevisiae WT and ARX3 strain harbouring the putative efflux pump MlcE. The experiment in a line: serial dilution plating of WT and ARX3 on YPD agar plates containing different cytotoxic compounds (FIG. 3). As to conditions: compound in YPD agar, tenfold dilution series, 30° C., 2 days; compactin, lovastatin, simvastatin in active form. It is filed as cell-based. Here is the method:
Investigation of the potential of MlcE to confer the resistance to statins in yeast. Tenfold dilution series of Saccharomyces cerevisiae WT and ARX3 strain harbouring the putative efflux pump MlcE, starting with an OD600 of 0.02 were prepared from overnight cultures.
Moreover, to determine if the putative efflux pump MlcE has the ability to export statins across the plasma membrane the inventors of the present application also tested whether MlcE confers resistance to statins in yeast. […] The resulting yeast strain ARX3 was tested for susceptibility to compactin by serial dilution plating of both wild type (WT) and ARX3 strains on YPD agar plates supplemented with the active form of compactin (FIG. 3).
Take `CC(C)c1c(C(=O)Nc2ccccc2)c(-c2ccccc2)c(-c2ccc(F)cc2)n1CC[C@@H](O)C[C@@H](O)CC(=O)O` [atorvastatin]: the “resistance of MlcE-expressing strain ARX3 compared to the wild type strain” value was “does not show an increased resistance”. On the same count and under the same terms, then `CC[C@H](C)C(=O)O[C@H]1CCC=C2C=C[C@H](C)[C@H](CC[C@@H]3C[C@@H](O)CC(=O)O3)[C@H]21` [compactin], with “increased resistance”; and `CC[C@H](C)C(=O)O[C@H]1C[C@@H](C)C=C2C=C[C@H](C)[C@H](CC[C@@H]3C[C@@H](O)CC(=O)O3)[C@H]21` [lovastatin], with “increased resistance”; and `COc1c(C)c2c(c(O)c1C/C=C(\C)CCC(=O)O)C(=O)OC2` [mycophenolic acid], with “does not show an increased resistance”. The same measure, in the same setting: then `COc1cc(C=O)ccc1O` [vanillin], with “does not show an increased resistance”.

The next test has as its system Saccharomyces cerevisiae strains (wt, ARX3, AR29 pdr5Δ, pdr5Δ). The experiment in a line: agar-plate dilution assay (spot assay) with lovastatin, PDR5 complementation (FIG. 4). As to conditions: lowest tested concentration (0.74 mM) of activated lovastatin, 30° C., 3 days.
Method: The constructed strains response to different lovastatin levels present in the growth medium were tested using a agar-plate dilution assay (also known as a spot assay). Overnight cultures of the four Saccharomyces cerevisiae strains (wt, ARX3, AR29 pdr5Δ, pdr5Δ,) were diluted to OD600 of 0.2 and a fivefold dilution series for each strain was made. […] The growth of the individual strain as a function of time was recorded by photography.
As to `CC[C@H](C)C(=O)O[C@H]1C[C@@H](C)C=C2C=C[C@H](C)[C@H](CC[C@@H]3C[C@@H](O)CC(=O)O3)[C@H]21` [lovastatin], the “growth of pdr5Δ strain” value was “lack of growth”.

Source of the values: patent US20170088589A1, “STATIN RESISTANCE AND EXPORT” (DANMARKS TEKNISKE UNIVERSITET, priority 2014, published 2017).
